Measurements reported in US20040152650A1, “Preventing ischemia-induced cell damage” (priority 2002, published 2004).

Assays:
cardiac myocytes [1] = assay: DNA fragmentation in cardiac myocytes subjected to hypoxia-acidosis; type: cell-based, rat; details: for Fragmentation of cardiac myocyte DNA by hypoxia-acidosis with MPTP inhibitor: 48 h time point, DUB 200 μM; for protection against DNA fragmentation with MPTP inhibitor: after 72 h hypoxia-acidosis
Protocol: Cardiac Myocyte Culture and Hypoxia. Methods utilized for the isolation and culture of primary neonatal rat cardiac myocytes and exposure to hypoxia have been described previously (28;29). Experiments were performed in defined serum-free DMEM/M-199 (4:1) medium. Oxygen was continuously monitored and maintained at <10 mm Hg.
(§1) Quantitative Analysis of Apoptosis. Cells were examined for morphologic evidence of apoptosis or necrosis by staining with anti-myosin antibody and the fluorescent DNA-binding dyes Hoechst 33342 and propidium iodide (PI), exactly as previously described (26;30). Genomic DNA fragmentation analyses were also as described previously (26;30).
Antisense. Antisense oligonucleotides were complementary to bases 10-40 and 600-630 of the BNIP3 gene; sequences 5′[…] (SEQ ID NO:1) and 5′[…] (SEQ ID NO:2) respectively. Random sequence oligonucleotides contained the same bases in a scrambled sequence. FITC-tagged oligonucleotides (2 μM final of each) in DMEM were mixed with lipofectamine (0.1 μg/ml, final concentration) and incubated with cardiac myocytes at 37° C. for 8 hours before treatments. Immediately before exposing to hypoxia, fresh medium with oligonucleotides was added. Fluorescence was visualized after 24, 36, and 48 hrs of exposure to hypoxia. Fresh oligonucleotides (400 nM) were added at 24 and 36 hrs.

cardiac myocytes [2] = assay: Peptide protection against hypoxia-acidosis death (DNA fragmentation analyses); type: cell-based, rat; details: peptide 10 PM (20 μg/ml); for protection against hypoxia-acidosis death: 24-48 h hypoxia with acid accumulation; for protection (quantitative DNA fragmentation analyses): n=3
Protocol: as §1
Peptides were added to cardiac myocyte cultures at a concentration of 10 PM (20 μg/ml) in serum-free defined medium (DMEM/high glucose/TIB) as described previously (26). Control cultures contained 20 μg/ml BSA. Cultures were exposed to 24-48 h of hypoxia with acid accumulation, also as described previously (26). The results using peptide 1 (23 aa N-BNIP3) are shown in FIG. 7 (−is control +is with peptide treatment).

## CO[C@H](C/C=C\C=C\CC/C=C/C[C@H](C)/C=C/C(=C\C(=O)O)CC(=O)O)/C(C)=C\C=C(/C)C(=O)O [BA, bongrekic acid]
Cardiac myocytes [1]
  Fragmentation of cardiac myocyte DNA by hypoxia-acidosis with MPTP inhibitor: blocked
  protection against DNA fragmentation with MPTP inhibitor: mediated protection

## CCCCCCCCCCC1=C(C)C(=O)C(OC)=C(OC)C1=O [DUB, decylubiquinone]
Cardiac myocytes [1]
  Fragmentation of cardiac myocyte DNA by hypoxia-acidosis with MPTP inhibitor: blocked
  protection against DNA fragmentation with MPTP inhibitor: mediated protection

## GRKKRRQRRRPPQC-----MSQSGEENLQGSWVELHFSNGNG-(C-term) (GRKKRRQRRRPPQCMSQSGEENLQGSWVELHFSNGNG; Synthetic Peptide Fragments) [Peptide 1, TAT-peptide containing N-terminal amino acids 1-23 of BNIP3]
Cardiac myocytes [2]
  protection against hypoxia-acidosis death: strong and significant protection
Cardiac myocytes [2]; 24 h hypoxia with acid accumulation
  protection (quantitative DNA fragmentation analyses): > 50%
Cardiac myocytes [2]; 48 h hypoxia with acid accumulation
  protection (quantitative DNA fragmentation analyses): > 50%

## GRKKRRQRRRPPQC----GDMEKILLDAQHESGRSSKSSHCDSP-(C-term) (GRKKRRQRRRPPQCGDMEKILLDAQHESGRSSKSSHCDSP; Synthetic Peptide Fragments) [Peptide 2, TAT-peptide containing N-terminal amino acids 24-49 of BNIP3]
Cardiac myocytes [2]
  protection against hypoxia-acidosis death: less effective
